{"source": "paper PMC2994747", "about": "“Molecular Characterization of c-Abl/c-Src Kinase Inhibitors Targeted against Murine Tumour Progenitor Cells that Express Stem Cell Markers” (PLoS ONE, 2010)", "key": {"GammaA3": {"tested_on": "GammaA3", "assay": "Caspase-Glo 3/7 activity assay", "assay_type": "cell-based, mouse", "conditions": "IC50 concentration"}, "[1]": {"tested_on": "murine and human tumour cell lines", "assay": "MTS cell viability assay, statements over the cell line panel", "assay_type": "cell-based", "conditions": "96 h; cell line not stated at b77; read-out: IC50 (MTS) after 96 h of treatment", "procedure": "Three human and eleven murine cancer cell lines were used. The human NSCLC cell line A549 (ACC 107) and the human colorectal carcinoma cell line CaCo2 (ACC 169) were obtained from Deutsche Sammlung von Mikroorganismen und Zellkulturen (DSMZ, Braunschweig, Germany). The human hepatocellular carcinoma cell line HepG2 (HB-8065) was obtained from American Type Culture Collection (Manassas, VA, USA). The 11 murine NSCLC cell lines were established as described recently. Cells were grown in monolayer cultures in DMEM containing 10% foetal calf serum, 4 mmol/l L-glutamine and 2% Penicillin/Streptomycin at 37°C in a humidified atmosphere of 95% air and 5% CO2.\nCell culture viability was monitored by CellTiter96® AQueous One Solution Cell Proliferation Assay (Promega GmbH, Mannheim, Germany). The cells were seeded in triplicates in 96-well microtitre plates and treated with the dual kinase inhibitors or vehicle (0.2% DMSO). After 24 h or 96 h of treatment the MTS tetrazolium reagent was added to the cells and incubated for 1 h. Absorbance at 490 nm was assayed with a Victor3 Wallac 1420 Multilabel counter (PerkinElmer, Waltham, MA, USA)."}, "GammaD12": {"tested_on": "GammaD12", "conditions": "IC50 concentration, 24 h, vs vehicle", "procedure": "According to instructions, Caspase-Glo® 3/7 assay (Promega GmbH, Mannheim, Germany) was used for monitoring caspase activity. Briefly, the same volume Caspase-Glo reagent as culture medium was added and incubated 1 h at room temperature. Luminescence was read with a Victor3 Wallac 1420 Multilabel counter (PerkinElmer, Rodgau, Germany). Background absorbance (medium only) was subtracted and the data given as percent of vehicle controls."}, "tumour cell lines": {"tested_on": "tumour cell lines", "assay": "Cell cycle analysis, statements over the cell line panel", "assay_type": "cell-based", "conditions": "IC50 concentration, 96 h", "procedure": "CycleTEST™ PLUS DNA Reagent Kit (Becton Dickinson GmbH, Heidelberg, Germany) for cell cycle analysis was used, according to the instructions of the manufacturer. Briefly, the cells were harvested with trypsin, washed with PBS, and resuspended in CycleTEST Buffer. The cells were centrifuged and resuspended in solution A. After incubation for 10 min at room temperature, solution B was added and incubated. After adding solution C, the samples were incubated at 4°C protected from light. The samples were stored on ice and protected from light until analysis by FACScan flow cytometer (Becton Dickinson GmbH, Heidelberg, Germany)."}}}
{"smiles": "Clc1cccc(Nc2nc(SC3CCCC3)nc3c2cnn3CC(Cl)c2ccccc2)c1", "note": "(centres unmarked) [Si135]", "values": [{"measurement": "Increase in caspase-3/7 activity", "setting": "GammaA3; 24 h, vs vehicle", "value": 10, "unit": "fold"}, {"measurement": "Increase in caspase-3/7 activity", "setting": "GammaA3; 96 h", "value": "about 30 % of control"}, {"measurement": "IC50", "setting": "[1]", "value": 2.7, "unit": "µM"}]}
{"smiles": "Fc1ccccc1CNc1ncnc2c1cnn2CC(Cl)c1ccc(Br)cc1", "note": "(centres unmarked) [Si162]", "values": [{"measurement": "Increase in caspase-3/7 activity", "setting": "GammaD12", "value": "up to 3 fold"}, {"measurement": "Cell cycle arrest (phase, in words)", "setting": "tumour cell lines", "value": "arrest in G2/M"}]}
